According to ChEMBL document CHEMBL1158905, “Two New Bioactive Cyclic Peroxides from the Marine Sponge Plakortis angulospiculatus” (J Nat Prod, 1990):
Converted amounts (≈) assume the structure as drawn. The source made the active and inactive calls. The calls are words filed in the database; no cut-off is given here.

Assays:
[1] = system: P388; test: Cytotoxicity against mouse P388 cells; assay type: functional, cell-based
[2] = system: Candida albicans; test: Antimicrobial activity against Candida albicans ATCC 44506 by broth microdilution method; assay type: functional
[3] = system: Aspergillus nidulans; test: Antimicrobial activity against Aspergillus nidulans by at 20 ug/disk by disk diffusion method; assay type: functional, organism-based
[4] = system: Escherichia coli; test: Antimicrobial activity against Escherichia coli by at 20 ug/disk by disk diffusion method; assay type: functional, organism-based
[5] = system: Bacillus subtilis; test: Antimicrobial activity against Bacillus subtilis by at 20 ug/disk by disk diffusion method; assay type: functional, organism-based

SMILES: CCCCC(CC)CC(C)CC1(CC)C=C(CC)C(CC(=O)OC)OO1 (stereo not given)
- IC50 [1]: 0.2 µg/mL (≈ 0.543 µM)
- MIC [2]: > 50 µg/mL
- Activity [3]: inactive
- Activity [4]: inactive
- Activity [5]: inactive

SMILES: CC/C=C/C(CC)CC(C)CC1(CC)C=C(CC)C(CC(=O)OC)OO1 (stereo not given)
- IC50 [1]: 0.9 µg/mL (≈ 2.46 µM)
- MIC [2]: > 50 µg/mL
- Activity [3]: inactive
- Activity [4]: inactive
- Activity [5]: inactive

SMILES: CC/C=C/C(CC)CC(C)CC1(CC)C=C(CC)C(CC(=O)O)OO1 (stereo not given)
- IC50 [1]: 0.3 µg/mL (≈ 0.851 µM)
- MIC [2]: 1.6 µg/mL (≈ 4.54 µM)
- Activity [3]: Active
- Activity [4]: inactive
- Activity [5]: Active

SMILES: CCCCC(CC)CC(C)CC1(CC)C=C(CC)C(CC(=O)O)OO1 (stereo not given)
- IC50 [1]: 0.2 µg/mL (≈ 0.564 µM)
- MIC [2]: 1.6 µg/mL (≈ 4.51 µM)
- Activity [3]: Active
- Activity [4]: inactive
- Activity [5]: Active
